Assay results from patent US20090217394A1 (priority 2005, published 2009).

What was measured:
SCID-Ins-TRECK-Tg mice [1] = assay: Decrease in blood glucose level by administration of insulin to DT-induced hyperglycemic mice; type: in vivo, mouse
SCID-Ins-TRECK-Tg mice [2] = assay: Blood glucose level after intraperitoneal diphtheria toxin in transgenic mice; type: in vivo, mouse
[3] = tested on: non-transgenic mouse born of the same mother; assay: Blood glucose level after diphtheria toxin in non-transgenic littermate; type: in vivo
SCID-Ins-TRECK-Tg mouse = assay: Blood insulin level after DT in transgenic mouse; type: in vivo
Source text: (§1) Moreover, the blood insulin level of an SCID-Ins-TRECK-Tg mouse was compared with that of a non-Tg mouse. When DT had not yet been administered, there had been no difference between them. […] However, the SCID-Ins-TRECK-Tg mouse was not able to secrete insulin, and thus the blood insulin level thereof was not changed (FIG. 5B) in it.

non-Tg mouse = assay: Blood insulin level after DT in non-Tg mouse; type: in vivo
Source text: as §1

[4] = tested on: islets of Langerhans in the pancreas of the transgenic mouse; assay: Histological analysis of transgenic mouse pancreas after diphtheria toxin; type: in vivo
mouse = conditions: dosage of 50 μg/kg
mouse cells = conditions: toxin added from outside of the cells; cited from earlier work
[5] = target: human HB-EGF (L148S/P149T) (human) (UniProt Q99075); assay: cell-based or functional assay
[6] = diphtheria toxin 50 ng/kg to 50 μg/kg intraperitoneal, within two days
[7] = 5th day after administration of DT
[8] = after DT, 10 minutes after 2 g/kg oral glucose
[9] = 7 days after 5 μg/kg diphtheria toxin, immunostaining

Chain of UniProt Q99075 (Q99075 63-148 L148S): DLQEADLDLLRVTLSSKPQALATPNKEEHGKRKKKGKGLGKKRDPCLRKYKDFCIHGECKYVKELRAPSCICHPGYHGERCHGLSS

## NovoRapid injection: rapid-acting insulin analogue (NovoRapid injection; NovoNordisk Pharma)
SCID-Ins-TRECK-Tg mice [1]; 1 U intraperitoneal, severe hyperglycemia (blood glucose >600 mg/dl)
  blood glucose level after insulin: decreased to a normal level
SCID-Ins-TRECK-Tg mice [1]; 100 mU insulin, mouse at 500 mg/dl or higher after 1 μg/kg DT (FIG. 5A)
  blood glucose level after insulin: rapidly decreased to a normal value
SCID-Ins-TRECK-Tg mice [1]; 100 mU intraperitoneal, 7 days after 1 μg/kg DT, mouse with blood glucose 500 mg/dl (FIG. 5C)
  blood glucose level after insulin: normalized
SCID-Ins-TRECK-Tg mice [1]; 100 mU intraperitoneal, severe hyperglycemia (blood glucose >600 mg/dl)
  blood glucose level after insulin: no changes

## diphtheria toxin
SCID-Ins-TRECK-Tg mice [2]; diphtheria toxin 50 ng/kg to 20 μg/kg intraperitoneal
  time for which high blood glucose level was maintained: ≥ 50 days
SCID-Ins-TRECK-Tg mice [2]; diphtheria toxin 50 ng/kg to 20 μg/kg intraperitoneal, from four days after administration
  blood glucose level from four days after administration: ≥ 400 mg/dL
SCID-Ins-TRECK-Tg mice [2]; diphtheria toxin 50 ng/kg to 20 μg/kg intraperitoneal, two days after administration
  blood glucose level two days after administration: ≥ 200 mg/dL
SCID-Ins-TRECK-Tg mice [2]; [6]
  blood glucose level within two days after administration: ≥ 200 mg/dL
  glucose and ketone bodies in urine: detection of glucose and ketone bodies in urine
SCID-Ins-TRECK-Tg mice [2]; single DT administration, 5 ng/kg to 50 μg/kg intraperitoneal
  duration of hyperglycemic state: ≥ 2 months
SCID-Ins-TRECK-Tg mice [2]; single intraperitoneal administration
  minimum DT amount necessary for inducing hyperglycemia: 50 ng/kg
[3]
  changes in blood glucose levels due to administration of the toxin: no changes
SCID-Ins-TRECK-Tg mouse; [7]
  blood insulin level: significantly decreased
SCID-Ins-TRECK-Tg mouse; [8]
  blood insulin level after glucose load: not changed
non-Tg mouse; [7]
  blood insulin level: not changed
non-Tg mouse; [8]
  blood insulin level after glucose load: rapidly increased
[4]; [9]
  insulin positive cells (β cells) in islets of Langerhans: significantly decreased
  number of α cells stained with anti-glucagon antibodies: increased
[4]; 7 days after 40 μg/kg diphtheria toxin
  cells in the islets of Langerhans (HE staining): damaged
mouse
  abnormality after administration: no abnormality is observed
Mouse cells
  resistance of mouse cells to diphtheria toxin relative to human cells: ≥ 1,000 times

## diphtheria toxin (from UniProt P00588 33-567)
[5]
  minimum DT amount necessary for inducing hyperglycemia: 50 ng/kg
